Laboratory results: patent publication US7507727B2, “Substituted quinobenzoxazine analogs and methods of using thereof” (Cylene Pharmaceuticals, Inc., priority 2003, dated 2009)

molecular target: c-Myc template DNA (c-myc quadruplex); experiment: Quadruplex binding / stop assay (Taq polymerase arrest, capillary electrophoresis); details: read-out: S DATA; Table 1D, stop assay data

IC50	SMILES
9.8 µM	COc1ccc(CCNc2c(F)cc3c(=O)c(C(=O)NCCC4CCCN4C)cn4c3c2Oc2cc3ccccc3cc2-4)cc1OC (stereo not shown) [compound 1757]
> 15 µM	CN1CCCC1CCNC(=O)c1cn2c3c(c(N(C)C4CCCCNC4)c(F)cc3c1=O)Oc1cc3ccccc3cc1-2 (stereo not shown) [compound 1510]
8.6 µM	Cn1cccc1CN1CCN(c2c(F)cc3c(=O)c(C(=O)NCCN4CCCC4)cn4c3c2Oc2cc(Cl)ccc2-4)CC1 [compound 1830]
0.75 µM	CN1CCN(CCCNC(=O)c2cn3c4c(c(N5CCC(N)C5)c(F)cc4c2=O)Oc2ccccc2-3)CC1 (stereo not shown) [compound 1621]
3 µM	O=C(NCCN1CCCC1)c1cn2c3c(c(N4CCC(c5cnccn5)C4)ccc3c1=O)Oc1ccccc1-2 (stereo not shown) [compound 1722]
> 15 µM	COc1ccccc1CCNC(=O)c1cn2c3c(c(N4CCC(N)C4)c(F)cc3c1=O)Oc1cc3ccccc3cc1-2 (stereo not shown) [compound 1711]
> 15 µM	CC(=O)N1CCN(c2c(F)cc3c(=O)c(C(=O)NCCC4CCCN4C)cn4c3c2Oc2cc(Cl)ccc2-4)CC1 (stereo not shown) [compound 1807]
0.75 µM	CN1CCCC1CCNc1ccc2c(=O)c(C(=O)NCCN3CCCC3)cn3c2c1Oc1cc2ccccc2cc1-3 (stereo not shown) [compound 1522]
1 µM	CCN(CC)CCCC(C)NC(=O)c1cn2c3c(c(N4CCC(c5cnccn5)C4)ccc3c1=O)Oc1cc3ccccc3cc1-2 (stereo not shown) [compound 1720]
1.75 µM	CN1CCCC1CCNC(=O)c1cn2c3c(c(N4CCC(C#N)(c5ccccc5)CC4)c(F)cc3c1=O)Oc1cc3ccccc3cc1-2 (stereo not shown) [compound 1491]
> 15 µM	CN1CCCC1CCNC(=O)c1cn2c3c(c(N4CCC(N)C4)c(F)cc3c1=O)Oc1ccccc1-2 (stereo not shown) [compound 1623]
> 15 µM	O=C(NCCN1CCOCC1)c1cn2c3c(c(N4CCC(c5cnccn5)C4)c(F)cc3c1=O)Oc1cc(Cl)ccc1-2 (stereo not shown) [compound 1790]
1.75 µM	CN1CCCC1CCNC(=O)c1cn2c3c(c(NCC4CCNCC4)c(F)cc3c1=O)Oc1cc3ccccc3cc1-2 (stereo not shown) [compound 1481]
4 µM	CCN(CC)CCCCNC(=O)c1cn2c3c(c(N4CCC(c5cnccn5)C4)c(F)cc3c1=O)Oc1ccc(Cl)cc1-2 (stereo not shown) [compound 1802]
> 15 µM	CC(C)N1CCN(c2c(F)cc3c(=O)c(C(=O)NCCCN4CCOCC4)cn4c3c2Oc2cc(Cl)ccc2-4)CC1 [compound 1792]
> 15 µM	NC1CCN(c2c(F)cc3c(=O)c(C(=O)NCCCN4CCCC4=O)cn4c3c2Oc2cc3ccccc3cc2-4)C1 (stereo not shown) [compound 1694]
6.1 µM	CN1CCCC1CCNC(=O)c1cn2c3c(c(N4CCC(c5cnccn5)C4)c(F)cc3c1=O)Oc1ccc(C(N)=O)cc1-2 (stereo not shown) [compound 1773]

IC50	SMILES
> 15 µM	CC(C)(C)OC(=O)NC1CCN(C(=O)c2cn3c4c(c(N5CCC(NC(=O)OC(C)(C)C)C5)c(F)cc4c2=O)Oc2ccccc2-3)C1 (stereo not shown) [compound 1586]
0.75 µM	CCN(CC)CCCC(C)Nc1c(F)cc2c(=O)c(C(=O)NCCC3CCCN3C)cn3c2c1Oc1cc2ccccc2cc1-3 (stereo not shown) [compound 1499]
> 15 µM	Cc1cc(CNc2c(F)cc3c(=O)c(C(=O)NCCC4CCCN4C)cn4c3c2Oc2cc3ccccc3cc2-4)no1 (stereo not shown) [compound 1753]
10 µM	O=C(NCCN1CCCC1)c1cn2c3c(c(N4CCN(Cc5ccc[nH]5)CC4)c(F)cc3c1=O)Oc1cc(Cl)ccc1-2 [compound 1833]
> 15 µM	CN1CCN(CCCNC(=O)c2cn3c4c(c(NCCN5CCOCC5)c(F)cc4c2=O)Oc2ccccc2-3)CC1 [compound 1606]
> 15 µM	NC1CCN(c2c(F)cc3c(=O)c(C(=O)NCCN4CCOCC4)cn4c3c2Oc2ccccc2-4)C1 (stereo not shown) [compound 1620]
1.8 µM	CN1CCCC1CCNC(=O)c1cn2c3c(c(NCCCN4CCCC4=O)c(F)cc3c1=O)Oc1cc3ccccc3cc1-2 (stereo not shown) [compound 1660]
> 15 µM	CN1CCCC1CCNC(=O)c1cn2c3c(c(NC(=O)C4CNCCN4)c(F)cc3c1=O)Oc1cc3ccccc3cc1-2 (stereo not shown) [compound 1505]
> 15 µM	CN(C)CCCCNC(=O)c1cn2c3c(c(NCCN4CCOCC4)ccc3c1=O)Oc1cc3ccccc3cc1-2 [compound 1550]
> 15 µM	CC(C)N1CCN(c2c(F)cc3c(=O)c(C(=O)NCCCN4CCOCC4)cn4c3c2Oc2ccccc2-4)CC1 [compound 1561]
> 15 µM	CN1CCN(CCCNc2c(F)cc3c(=O)c(C(=O)N4CCC(N5CCCC5)CC4)cn4c3c2Oc2ccccc2-4)CC1 [compound 1581]
> 15 µM	NC1CCN(c2c(F)cc3c(=O)c(C(=O)NCCc4cccs4)cn4c3c2Oc2cc3ccccc3cc2-4)C1 (stereo not shown) [compound 1701]
> 15 µM	CN(C)CCCCNc1ccc2c(=O)c(C(=O)NCCCN3CCOCC3)cn3c2c1Oc1cc2ccccc2cc1-3 [compound 1542]
> 15 µM	CN1CCN(CCCNc2c(F)cc3c(=O)c(C(=O)NCCN4CCCC4)cn4c3c2Oc2ccccc2-4)CC1 [compound 1577]
> 15 µM	CN1CCCC1CCNC(=O)c1cn2c3c(c(N4CCC(NC(=O)OC(C)(C)C)C4)c(F)cc3c1=O)Oc1ccccc1-2 (stereo not shown) [compound 1587]
1.75 µM	NC1CCN(C(=O)c2cn3c4c(c(N5CC6CCCNC6C5)c(F)cc4c2=O)Oc2cc4ccccc4cc2-3)C1 (stereo not shown) [compound 1638]

same assay, conditions: read-out: Stop Data c-Myc μM; concentration at which 50% of the DNA was arrested (arrested:full-length 1:1)

IC50	SMILES
2.5 µM	CN1CCN(CCCNC(=O)c2cn3c4c(c(NCCN5CCOCC5)c(F)cc4c2=O)Oc2cc4ccccc4cc2-3)CC1 [compound 55]
0.75 µM	O=C(O)c1cn2c3cc4oc5cc([N+](=O)[O-])ccc5[nH]c4cc3oc3c(NCCCN4CCOCC4)c(F)cc(c1=O)c32 [compound 18]
0.75 µM	O=C(NCCN1CCCC1)c1cn2c3cc4c(cc3oc3c(NCCN5CCOCC5)c(F)cc(c1=O)c32)c(=O)c1ccccc14 [compound 419]
0.75 µM	CN(C)CCCCNc1c(F)cc2c(=O)c(C(=O)NCCCN3CCOCC3)cn3c2c1Oc1cc2ccccc2cc1-3 [compound 397]
0.75 µM	CN1CCN(CCCNc2c(F)cc3c(=O)c(C(=O)O)cn4c3c2Oc2cc3ccccc3cc2-4)CC1 [compound 398]
0.94 µM	CN1CCC[C@H]1CCNC(=O)c1cn2c3c(c(N4CCC(c5cnccn5)C4)c(F)cc3c1=O)Oc1cc3ccccc3cc1-2 (stereo partly shown) [compound 339]
1.75 µM	CN1CCN(CCCNC(=O)c2cn3c4c(c(NCCCN5CCOCC5)c(F)cc4c2=O)Oc2c-3ccc3ccccc23)CC1 [compound 127]
1.75 µM	CN1CCN(CCCNC(=O)c2cn3c4c(c(N5CC[C@@H](NC(=O)CCN6CCCC6)C5)c(F)cc4c2=O)Oc2cc4c(cc2-3)oc2ccccc24)CC1 [compound 174]
1.75 µM	CN1CCCC1CCNC(=O)c1cn2c3c(c(N4CCC(NC(=O)OC(C)(C)C)C4)c(F)cc3c1=O)Oc1cc3ccccc3cc1-2 (stereo not shown) [compound 213]
1.75 µM	CN1CCCC1CCNC(=O)c1cn2c3c(c(NC(=O)C4CCCNC4)c(F)cc3c1=O)Oc1cc3ccccc3cc1-2 (stereo not shown) [compound 251]
1.75 µM	CN(C)/C=N/CCCCNC(=O)c1cn2c3c(c(N4CC[C@@H](NC(=O)OC(C)(C)C)C4)c(F)cc3c1=O)Oc1cc3ccccc3cc1-2 [compound 212]
0.75 µM	CN1CCCC1CCNCC(=O)N[C@@H]1CCN(c2c(F)cc3c(=O)c(C(=O)NCCCn4ccnc4)cn4c3c2Oc2cc3c(cc2-4)oc2ccccc23)C1 (stereo partly shown) [compound 414]
1.75 µM	CN(C)CCCCNc1c(F)cc2c(=O)c(C(=O)NCCCN3CCOCC3)cn3c2c1Oc1cc2c(cc1-3)oc1ccccc12 [compound 162]
2.5 µM	CN1CCN(CCCNC(=O)c2cn3c4c(c(NCCN5CCCC5)c(F)cc4c2=O)Oc2cc4ccccc4cc2-3)CC1 [compound 71]
0.75 µM	CNC1CCN(c2c(F)cc3c(=O)c(C(=O)NCCC4CCCN4C)cn4c3c2Oc2cc3ccccc3cc2-4)C1 (stereo not shown) [compound 430]
0.75 µM	CN1CCN(C(=O)c2cn3c4c(c(N5CC[C@@H](NC(=O)CNCCC6CCCN6C)C5)c(F)cc4c2=O)Oc2cc4c(cc2-3)oc2ccccc24)CC1 (stereo partly shown) [compound 411]

IC50	SMILES
0.75 µM	CN1CCN(CCCNC(=O)c2cn3c4c(c(N5CCC(N)C5)c(F)cc4c2=O)Oc2ccccc2-3)CC1 (stereo not shown) [compound 459]
1.75 µM	CC(C)(C)OC(=O)N[C@@H]1CCN(c2c(F)cc3c(=O)c(C(=O)NCCCCN)cn4c3c2Oc2cc3ccccc3cc2-4)C1 [compound 210]
1.75 µM	NC1CCN(c2c(F)cc3c(=O)c(C(=O)NCc4ccccc4N4CCCCC4)cn4c3c2Oc2cc3ccccc3cc2-4)C1 (stereo not shown) [compound 247]
0.375 µM	O=C(NCCN1CCCC1)c1cn2c3cc4oc5cc([N+](=O)[O-])ccc5[nH]c4cc3oc3c(NCCCN4CCOCC4)c(F)cc(c1=O)c32 [compound 554]
1.75 µM	CCN(CC)C(=O)C1CCCN(c2c(F)cc3c(=O)c(C(=O)NCCC4CCCN4C)cn4c3c2Oc2cc3ccccc3cc2-4)C1 (stereo not shown) [compound 250]
2.5 µM	CN1CCCC1CCNC(=O)c1cn2c3c(c(NC(=O)CCN4CCCC4)c(F)cc3c1=O)Oc1cc3ccccc3cc1-2 (stereo not shown) [compound 89]
1.75 µM	CN(C)CCCCNc1ccc2c(=O)c(C(=O)NCCC3CCCN3C)cn3c2c1Oc1cc2ccccc2cc1-3 (stereo not shown) [compound 275]
0.73 µM	CN1CCC[C@H]1CCNC(=O)c1cn2c3c(c(N4CCC(c5cnccn5)C4)c(F)cc3c1=O)Oc1cc3ccccc3cc1-2 (stereo partly shown) [compound 469]
1.75 µM	CN1CCCC1CCNC(=O)c1cn2c3c(c(NCCN4CCOCC4)c(F)cc3c1=O)Oc1c-2ccc2ccccc12 (stereo not shown) [compound 131]
2.5 µM	CN1CCN(C(=O)c2cn3c4c(c(N5CC[C@@H](N)C5)c(F)cc4c2=O)Oc2c-3ccc3ccccc23)CC1 [compound 81]
0.375 µM	CN1CCCC1CCNC(=O)c1cn2c3c(c(NCC4CCNC4)c(F)cc3c1=O)Oc1cc3ccccc3cc1-2 (stereo not shown) [compound 559]
2.5 µM	O=C(c1cn2c3c(c(NCCN4CCCC4)c(F)cc3c1=O)Oc1cc3ccccc3cc1-2)N1CCOCC1 [compound 43]
1.75 µM	CN(C)CCCCNc1ccc2c(=O)c(C(=O)NC3CC(C)(C)NC(C)(C)C3)cn3c2c1Oc1cc2ccccc2cc1-3 [compound 276]
1.75 µM	CC1CCCCN1CCCNC(=O)c1cn2c3c(c(N4CCC(NC(=O)OC(C)(C)C)C4)c(F)cc3c1=O)Oc1cc3ccccc3cc1-2 (stereo not shown) [compound 185]
1.75 µM	CN(C)CCCCNC(=O)c1cn2c3c(c(N4CCC(NC(=O)OC(C)(C)C)C4)c(F)cc3c1=O)Oc1cc3c(cc1-2)oc1ccccc13 (stereo not shown) [compound 155]
